Measured values published in the supplement of paper PMC10627819.

How the values were obtained:
Conditions in all cases: main component drawn
B. subtilis 168 [1] = experiment: Bliss interaction score (quartile over a dose matrix) (fitness difference); higher = more antagonism (negative = synergy)
Summary of the method: (§1)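 Growth in each well was taken as OD595 at entry into stationary phase. Dividing by the plate's robust no-drug mean and capping at 1 gave fitness, and single-drug fitness was inferred from the combination data. The Bliss score, observed minus product-expected fitness, is summarised by quartiles over technical, biological and donor/recipient replicates.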

S. pneumoniae D39V = experiment: as above
Summary of the method: as §1

S. aureus Newman [2] = experiment: as above
Summary of the method: as §1

S. aureus DSM 20231 = experiment: as above
Summary of the method: as §1

B. subtilis 168 [3] = experiment: fitness (endpoint OD595 vs no drug) (fraction); higher = more growth
Summary of the method: (§2)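 Cultures at OD595 0.01 were dispensed into 384-well plates in TSB, LB Lennox or CY and incubated at 37 °C. Every 30 min for 14 h, OD595 was read and corrected by the first reading. Fitness is the optical density at entry into stationary phase relative to the robust mean of no-drug control wells, capped at 1.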

S. aureus Newman [4] = experiment: as above
Summary of the method: as §2
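Wherever Bliss interaction score (quartile over a dose matrix) is given: first quartile when negative (synergy) and third quartile when positive (antagonism).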

CC[C@H](C)[C@H](N)C1=N[C@H](C(=O)N[C@@H](CC(C)C)C(=O)N[C@H](CCC(=O)O)C(=O)N[C@H](C(=O)N[C@H]2CCCCNC(=O)[C@H](CC(N)=O)NC(=O)[C@@H](CC(=O)O)NC(=O)[C@H](Cc3cnc[nH]3)NC(=O)[C@@H](Cc3ccccc3)NC(=O)[C@H]([C@@H](C)CC)NC(=O)[C@@H](CCCN)NC2=O)[C@@H](C)CC)CS1 [Bacitracin] + COc1c(N2C[C@@H]3CCCN[C@@H]3C2)c(F)cc2c(=O)c(C(=O)O)cn(C3CC3)c12 [Moxifloxacin]
Conditions	Bliss interaction score
B. subtilis 168 [1]	-0.0316
S. aureus DSM 20231	0.0317
S. aureus Newman [2]	-0.078
S. pneumoniae D39V	0.0806

fitness
Conditions	partner 0.0075 µg/mL	partner 0.015 µg/mL	partner 0.03 µg/mL	partner 0.0312 µg/mL	partner 0.0625 µg/mL	partner 0.125 µg/mL	partner 2 µg/mL	partner 4 µg/mL	partner 8 µg/mL
B. subtilis 168 [3], first compound 37.5 µg/mL	–	–	–	0.0427	0.0342	0.0345	0.0202	0.0156	0.0081
B. subtilis 168 [3], first compound 75 µg/mL	–	–	–	0.022	0.026	0.0158	0.0179	0.0161	0.009
B. subtilis 168 [3], first compound 150 µg/mL	–	–	–	0.019	0.0046	0.0203	0.0204	0.0121	0.0111
S. aureus Newman [4], first compound 18.75 µg/mL	0.614	0.482	0.0523	–	–	–	–	–	–
S. aureus Newman [4], first compound 37.5 µg/mL	0.133	0.0255	0.0043	–	–	–	–	–	–
S. aureus Newman [4], first compound 75 µg/mL	0.0091	0.0053	0.0025	–	–	–	–	–	–

CC[C@H](C)[C@H](N)C1=N[C@H](C(=O)N[C@@H](CC(C)C)C(=O)N[C@H](CCC(=O)O)C(=O)N[C@H](C(=O)N[C@H]2CCCCNC(=O)[C@H](CC(N)=O)NC(=O)[C@@H](CC(=O)O)NC(=O)[C@H](Cc3cnc[nH]3)NC(=O)[C@@H](Cc3ccccc3)NC(=O)[C@H]([C@@H](C)CC)NC(=O)[C@@H](CCCN)NC2=O)[C@@H](C)CC)CS1 [Bacitracin] + O=C(O[C@@H]1Cc2c(O)cc(O)cc2O[C@@H]1c1cc(O)c(O)c(O)c1)c1cc(O)c(O)c(O)c1 [EGCG]
Conditions	Bliss interaction score
B. subtilis 168 [1]	0.0767
S. aureus DSM 20231	-0.0223
S. aureus Newman [2]	0.124
S. pneumoniae D39V	-0.0707

fitness
Conditions	first compound 18.75 µg/mL	first compound 37.5 µg/mL	first compound 75 µg/mL	first compound 150 µg/mL
B. subtilis 168 [3], partner 6.25 µg/mL	–	0.876	0.885	0.827
B. subtilis 168 [3], partner 12.5 µg/mL	–	–	–	0.562
S. aureus Newman [4], partner 12.5 µg/mL	0.73	0.43	0.0108	–
S. aureus Newman [4], partner 25 µg/mL	0.632	0.283	0.0073	–
S. aureus Newman [4], partner 50 µg/mL	0.444	0.192	0.0184	–

CC[C@H](C)[C@H](N)C1=N[C@H](C(=O)N[C@@H](CC(C)C)C(=O)N[C@H](CCC(=O)O)C(=O)N[C@H](C(=O)N[C@H]2CCCCNC(=O)[C@H](CC(N)=O)NC(=O)[C@@H](CC(=O)O)NC(=O)[C@H](Cc3cnc[nH]3)NC(=O)[C@@H](Cc3ccccc3)NC(=O)[C@H]([C@@H](C)CC)NC(=O)[C@@H](CCCN)NC2=O)[C@@H](C)CC)CS1 [Bacitracin] + CCN(CC)CCOC(=O)c1ccc(N)cc1 [Procaine]
Conditions	Bliss interaction score
B. subtilis 168 [1]	0.116
S. aureus DSM 20231	0.0191
S. aureus Newman [2]	0.0965
S. pneumoniae D39V	-0.0511

fitness
Conditions	partner 85.5 µg/mL	partner 171 µg/mL	partner 342 µg/mL
B. subtilis 168 [3], first compound 37.5 µg/mL	0.88	0.939	0.874
B. subtilis 168 [3], first compound 75 µg/mL	0.899	0.879	0.871
B. subtilis 168 [3], first compound 150 µg/mL	0.753	0.752	0.619
S. aureus Newman [4], first compound 18.75 µg/mL	0.792	0.738	0.749
S. aureus Newman [4], first compound 75 µg/mL	0.0486	0.0139	0.0176

CC[C@H](C)[C@H](N)C1=N[C@H](C(=O)N[C@@H](CC(C)C)C(=O)N[C@H](CCC(=O)O)C(=O)N[C@H](C(=O)N[C@H]2CCCCNC(=O)[C@H](CC(N)=O)NC(=O)[C@@H](CC(=O)O)NC(=O)[C@H](Cc3cnc[nH]3)NC(=O)[C@@H](Cc3ccccc3)NC(=O)[C@H]([C@@H](C)CC)NC(=O)[C@@H](CCCN)NC2=O)[C@@H](C)CC)CS1 [Bacitracin] + CC1=C\[C@@H](O)CC(=O)Cc2nc(co2)C(=O)N2CCC=C2C(=O)O[C@H](C(C)C)[C@H](C)/C=C/C(=O)NC\C=C\1 [Virginiamycin M1]
Conditions	Bliss interaction score
B. subtilis 168 [1]	0.0905
S. aureus DSM 20231	-0.0463
S. aureus Newman [2]	0.0498
S. pneumoniae D39V	0.094

fitness
Conditions	partner 0.0625 µg/mL	partner 0.125 µg/mL	partner 0.25 µg/mL
B. subtilis 168 [3], first compound 37.5 µg/mL	0.986	0.926	0.927
B. subtilis 168 [3], first compound 75 µg/mL	0.994	0.861	0.951
S. aureus Newman [4], first compound 18.75 µg/mL	0.698	0.698	0.705
S. aureus Newman [4], first compound 37.5 µg/mL	0.146	0.215	0.215
S. aureus Newman [4], first compound 75 µg/mL	0.037	0.0313	0.0704

fitness, S. aureus Newman [4], one replicate
Conditions	first compound 18.75 µg/mL	first compound 37.5 µg/mL	first compound 75 µg/mL
partner 0.5 µg/mL	0.693	0.519	0.0148
partner 1 µg/mL	0.72	0.368	0.0101
partner 2 µg/mL	0.594	0.127	0.0147

CC[C@H](C)[C@H](N)C1=N[C@H](C(=O)N[C@@H](CC(C)C)C(=O)N[C@H](CCC(=O)O)C(=O)N[C@H](C(=O)N[C@H]2CCCCNC(=O)[C@H](CC(N)=O)NC(=O)[C@@H](CC(=O)O)NC(=O)[C@H](Cc3cnc[nH]3)NC(=O)[C@@H](Cc3ccccc3)NC(=O)[C@H]([C@@H](C)CC)NC(=O)[C@@H](CCCN)NC2=O)[C@@H](C)CC)CS1 [Bacitracin] + CN[C@@H]1[C@H](O[C@H]2[C@H](O[C@H]3[C@H](O)[C@@H](O)[C@H](N=C(N)N)[C@@H](O)[C@@H]3N=C(N)N)O[C@@H](C)[C@]2(O)C=O)O[C@@H](CO)[C@H](O)[C@H]1O [Streptomycin]
Conditions	Bliss interaction score
B. subtilis 168 [1]	-0.234
S. aureus DSM 20231	-0.0869
S. aureus Newman [2]	-0.323
S. pneumoniae D39V	-0.146

fitness
Conditions	first compound 18.75 µg/mL	first compound 37.5 µg/mL	first compound 75 µg/mL	first compound 150 µg/mL
B. subtilis 168 [3], partner 2 µg/mL	–	0.908	0.807	–
B. subtilis 168 [3], partner 8 µg/mL	–	0.0363	0.0188	0.0134
S. aureus Newman [4], partner 1 µg/mL	–	0.0508	0.0138	–
S. aureus Newman [4], partner 2 µg/mL	–	0.0177	0.0112	–
S. aureus Newman [4], partner 4 µg/mL	0.0347	0.0049	0.0045	–

CC[C@H](C)[C@H](N)C1=N[C@H](C(=O)N[C@@H](CC(C)C)C(=O)N[C@H](CCC(=O)O)C(=O)N[C@H](C(=O)N[C@H]2CCCCNC(=O)[C@H](CC(N)=O)NC(=O)[C@@H](CC(=O)O)NC(=O)[C@H](Cc3cnc[nH]3)NC(=O)[C@@H](Cc3ccccc3)NC(=O)[C@H]([C@@H](C)CC)NC(=O)[C@@H](CCCN)NC2=O)[C@@H](C)CC)CS1 [Bacitracin] + CN[C@@H]1[C@H](O)[C@H](NC)[C@H]2O[C@@]3(O)C(=O)C[C@@H](C)O[C@H]3O[C@@H]2[C@H]1O [Spectinomycin]
Conditions	Bliss interaction score
B. subtilis 168 [1]	0.0682
S. aureus DSM 20231	0.0546
S. aureus Newman [2]	-0.165
S. pneumoniae D39V	-0.186

fitness
Conditions	partner 2 µg/mL	partner 4 µg/mL	partner 8 µg/mL	partner 16 µg/mL
B. subtilis 168 [3], first compound 37.5 µg/mL	0.903	0.933	0.863	–
B. subtilis 168 [3], first compound 75 µg/mL	0.889	0.911	0.829	–
S. aureus Newman [4], first compound 18.75 µg/mL	–	0.652	–	–
S. aureus Newman [4], first compound 75 µg/mL	–	0.0188	0.0181	0

fitness, S. aureus Newman [4], one replicate
Conditions	first compound 18.75 µg/mL	first compound 37.5 µg/mL	first compound 75 µg/mL
partner 32 µg/mL	0.0067	0.0186	0
partner 64 µg/mL	0.0327	0.0167	0.003

CC[C@H](C)[C@H](N)C1=N[C@H](C(=O)N[C@@H](CC(C)C)C(=O)N[C@H](CCC(=O)O)C(=O)N[C@H](C(=O)N[C@H]2CCCCNC(=O)[C@H](CC(N)=O)NC(=O)[C@@H](CC(=O)O)NC(=O)[C@H](Cc3cnc[nH]3)NC(=O)[C@@H](Cc3ccccc3)NC(=O)[C@H]([C@@H](C)CC)NC(=O)[C@@H](CCCN)NC2=O)[C@@H](C)CC)CS1 [Bacitracin] + COc1cccc2c1C(=O)c1c(O)c3c(c(O)c1C2=O)C[C@@](O)(C(=O)CO)C[C@@H]3O[C@H]1C[C@H](N)[C@H](O)[C@H](C)O1 [Doxorubicin]
Conditions	Bliss interaction score
B. subtilis 168 [1]	0.0797
S. aureus DSM 20231	0.115
S. aureus Newman [2]	0.0938
S. pneumoniae D39V	-0.0704

fitness
Conditions	partner 0.625 µg/mL	partner 1.25 µg/mL	partner 2.5 µg/mL
B. subtilis 168 [3], first compound 37.5 µg/mL	0.889	0.851	0.686
B. subtilis 168 [3], first compound 75 µg/mL	0.827	0.792	–
B. subtilis 168 [3], first compound 150 µg/mL	0.691	0.653	–
S. aureus Newman [4], first compound 18.75 µg/mL	0.607	0.598	0.513
S. aureus Newman [4], first compound 75 µg/mL	0.0711	0.0343	0.0074
